The source of these data is US10766869B2, “Triazoles for the treatment of demyelinating dieases” (Vertex Pharmaceuticals Incorporated, priority 2015, dated 2020).

This test deals with primary rat mixed cortical cells. Put plainly: In vitro myelination assay (MBP positive myelin strands, fold myelin pixels above background). It is filed as cell-based. Particulars: Rattus norvegicus, relative to baseline of no added compound, read-out: Fold myelin pixels above background; for fold induction at 1 µM: 1.0 μM compound; for fold induction at 10 µM: 10.0 μM compound. In outline: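 Read-out is total MBP-positive myelin strand pixels per well, detected by custom ridge-tracing software and reported as fold over untreated baseline. Primary P1 rat mixed cortical cells received compound (1.0 or 10.0 μM) for 14 days, with medium half-replaced on days 6 and 10. Standard deviation was taken across all replicates.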

For `Cc1cc(Nc2ncn(-c3cc(F)cc(F)c3)n2)cc(N2CC(N3CCOC4CC43)C2)c1` (centres unmarked) [Compound 652, 1-(3,5-difluorophenyl)-N-[3-methyl-5-[3-(5-oxa-2-azabicyclo[4.1.0]heptan-2-yl)azetidin-1-yl]phenyl]-1,2,4-triazol-3-amine], the fold induction at 1 µM lay within 10 to 100 and the fold induction at 10 µM was ≤ 1.
For `CC(C)Oc1cc(Nc2ncn(-c3cc(F)cc(F)c3)n2)cc(N2CCN(C3COC3)CC2)c1` [Compound 653, 1-(3,5-difluorophenyl)-N-[3-isopropoxy-5-[4-(oxetan-3-yl)piperazin-1-yl]phenyl]-1,2,4-triazol-3-amine] the same measures were 10 to 100 and ≤ 1.
For `CCN1CCN(c2cc(C(F)(F)F)cc(Nc3ncn(-c4cc(F)cc(F)c4)n3)n2)CC1` [Compound 654, N-[1-(3,5-difluorophenyl)-1,2,4-triazol-3-yl]-6-(4-ethylpiperazin-1-yl)-4-(trifluoromethyl)pyridin-2-amine], the fold induction at 1 µM was 1 to 10 and the fold induction at 10 µM fell in the range of 1 to 10.
For `N#Cc1cc(Nc2ncn(-c3ccc(F)c(F)c3)n2)cc(N2CCN(C3COC3)CC2)c1` [Compound 656, 3-[[1-(3,4-difluorophenyl)-1,2,4-triazol-3-yl]amino]-5-[4-(oxetan-3-yl)piperazin-1-yl]benzonitrile], the fold induction at 1 µM was in the range of 1 to 10 and the fold induction at 10 µM was ≤ 1.
In the case of `CN1CCN(c2cc(Nc3ncn(-c4cc(F)cc(F)c4)n3)cc(N3CCN(C)CC3)c2)CC1` [Compound 657, N-[3,5-bis(4-methylpiperazin-1-yl)phenyl]-1-(3,5-difluorophenyl)-1,2,4-triazol-3-amine], the fold induction at 1 µM lay within 1 to 10 and the fold induction at 10 µM is ≤ 1.
For `Cc1cc(Nc2ncn(-c3ccc(F)c(F)c3)n2)cc(N2CC(N3CCCOCC3)C2)c1` [Compound 659, 1-(3,4-difluorophenyl)-N-[3-methyl-5-[3-(1,4-oxazepan-4-yl)azetidin-1-yl]phenyl]-1,2,4-triazol-3-amine], the fold induction at 1 µM fell in the range of 10 to 100 and the fold induction at 10 µM was 10 to 100.
Turning to `Fc1cc(F)cc(-n2cnc(Nc3cc(N4CC(N5CCOCC5)C4)cc(Cl)n3)n2)c1` [Compound 660, 6-chloro-N-[1-(3,5-difluorophenyl)-1,2,4-triazol-3-yl]-4-(3-morpholinoazetidin-1-yl)pyridin-2-amine], the fold induction at 1 µM is ≤ 1 and the fold induction at 10 µM is ≤ 1.
Take `Cc1cc(Nc2ncn(-c3cc(F)cc(F)c3)n2)cc(N2CC(N3CCS(=O)(=O)CC3)C2)c1` [Compound 661, 1-(3,5-difluorophenyl)-N-[3-[3-(1,1-dioxo-1,4-thiazinan-4-yl)azetidin-1-yl]-5-methyl-phenyl]-1,2,4-triazol-3-amine]: the fold induction at 1 µM fell in the range of 10 to 100 and the fold induction at 10 µM was in the range of 1 to 10.
For `COc1cc(Nc2ncn(-c3cccc(C(F)(F)F)c3)n2)cc(N2CCN(C3COC3)CC2)c1` [Compound 662, N-[3-methoxy-5-[4-(oxetan-3-yl)piperazin-1-yl]phenyl]-1-[3-(trifluoromethyl)phenyl]-1,2,4-triazol-3-amine] the same measures were 10 to 100 and ≤ 1.
On to `Cc1cc(Nc2ncn(-c3cc(F)cc(F)c3)n2)cc(C2CN(C3COC3)CC(C)O2)c1` (centres unmarked) [Compound 663, 1-(3,5-difluorophenyl)-N-[3-methyl-5-[6-methyl-4-(oxetan-3-yl)morpholin-2-yl]phenyl]-1,2,4-triazol-3-amine], for which the fold induction at 1 µM was 10 to 100 and the fold induction at 10 µM was ≤ 1.
For `CNC(=O)c1cc(Nc2ncn(-c3cc(F)cc(F)c3)n2)nc(N2CCN(C3COC3)CC2)c1` [Compound 664, 2-[[1-(3,5-difluorophenyl)-1,2,4-triazol-3-yl]amino]-N-methyl-6-[4-(oxetan-3-yl)piperazin-1-yl]pyridine-4-carboxamide] the same measures were 1 to 10 and 1 to 10.
In the case of `N#Cc1cc(Nc2ncn(-c3cnccn3)n2)cc(N2CCOCC2)c1` [Compound 666, 3-morpholino-5-[(1-pyrazin-2-yl-1,2,4-triazol-3-yl)amino]benzonitrile], the fold induction at 1 µM was in the range of 10 to 100 and the fold induction at 10 µM lay within 1 to 10.
Consider `N#Cc1cc(Nc2ncn(-c3ccc(F)c(F)c3)n2)cc(N2CCOCC2)c1` [Compound 668, 3-[[1-(3,4-difluorophenyl)-1,2,4-triazol-3-yl]amino]-5-morpholino-benzonitrile], for which the fold induction at 1 µM lay in the range of 1 to 10 and the fold induction at 10 µM lay in the range of 1 to 10.
For `Cc1cc(Nc2ccn(C(C)C)n2)cc(Nc2ncn(-c3ccccc3)n2)c1` [Compound 669, N3-(1-isopropylpyrazol-3-yl)-5-methyl-N1-(1-phenyl-1,2,4-triazol-3-yl)benzene-1,3-diamine], the fold induction at 1 µM lay within 10 to 100 and the fold induction at 10 µM was ≤ 1.
For `Cc1cc(Nc2ncn(-c3cc(F)cc(F)c3)n2)cc(N2CC(N3CCOC[C@H]3C)C2)c1` [Compound 670, 1-(3,5-difluorophenyl)-N-[3-methyl-5-[3-[(3R)-3-methylmorpholin-4-yl]azetidin-1-yl]phenyl]-1,2,4-triazol-3-amine] the same measures were 10 to 100 and 10 to 100.
For `Cc1cc(Nc2ncn(-c3cccc(C(F)(F)F)c3)n2)cc(OCC2(C)COC2)c1` [Compound 671, N-[3-methyl-5-[(3-methyloxetan-3-yl)methoxy]phenyl]-1-[3-(trifluoromethyl)phenyl]-1,2,4-triazol-3-amine] the same measures were 10 to 100 and 1 to 10.
In the case of `Fc1cc(F)cc(-n2cnc(Nc3cc(C(F)(F)F)cc(N4CCOCC4)n3)n2)c1` [Compound 674, N-[1-(3,5-difluorophenyl)-1,2,4-triazol-3-yl]-6-morpholino-4-(trifluoromethyl)pyridin-2-amine], the fold induction at 1 µM lay within 1 to 10 and the fold induction at 10 µM fell in the range of 1 to 10.
On to `COC(=O)c1cc(Nc2ncn(-c3cc(F)cc(F)c3)n2)nc(N2CCOCC2)c1` [Compound 675, methyl 2-[[1-(3,5-difluorophenyl)-1,2,4-triazol-3-yl]amino]-6-morpholino-pyridine-4-carboxylate], for which the fold induction at 1 µM fell in the range of 1 to 10 and the fold induction at 10 µM fell in the range of 1 to 10.
Take `Cc1cc(Nc2ncn(C)n2)cc(Nc2ncn(-c3ccccc3)n2)c1` [Compound 676, 5-methyl-N3-(1-methyl-1,2,4-triazol-3-yl)-N1-(1-phenyl-1,2,4-triazol-3-yl)benzene-1,3-diamine]: the fold induction at 1 µM fell in the range of 10 to 100 and the fold induction at 10 µM was ≤ 1.
On to `Cc1cc(Nc2ncn(-c3cc(F)cc(F)c3)n2)cc(OCC2(C)COC2)c1` [Compound 677, 1-(3,5-difluorophenyl)-N-[3-methyl-5-[(3-methyloxetan-3-yl)methoxy]phenyl]-1,2,4-triazol-3-amine], for which the fold induction at 1 µM is 100 to 1000 and the fold induction at 10 µM was ≤ 1.
On to `N#Cc1cc(Nc2ncn(-c3cc(F)cc(F)c3)n2)cc(N2CCN(C3COC3)CC2)c1` [Compound 678, 3-[[1-(3,5-difluorophenyl)-1,2,4-triazol-3-yl]amino]-5-[4-(oxetan-3-yl)piperazin-1-yl]benzonitrile], for which the fold induction at 1 µM was 10 to 100 and the fold induction at 10 µM lay in the range of 1 to 10.
On to `FC(F)c1cc(Nc2ncn(-c3cccc(C(F)(F)F)c3)n2)nc(N2CCN(C3COC3)CC2)c1` [Compound 680, 4-(difluoromethyl)-6-[4-(oxetan-3-yl)piperazin-1-yl]-N-[1-[3-(trifluoromethyl)phenyl]-1,2,4-triazol-3-yl]pyridin-2-amine], for which the fold induction at 1 µM was in the range of 10 to 100 and the fold induction at 10 µM lay in the range of 10 to 100.
As to `Cc1cc(Nc2ncn(-c3ccccc3)n2)cc(Nc2ncn(-c3ccccc3)n2)c1` [Compound 681, 5-methyl-N1,N3-bis(1-phenyl-1,2,4-triazol-3-yl)benzene-1,3-diamine], the fold induction at 1 µM fell in the range of 10 to 100 and the fold induction at 10 µM was 1 to 10.
`Cc1cc(Nc2ncn(-c3cc(F)cc(F)c3)n2)cc(N2CC(C)(N3CCOCC3)C2)c1` [Compound 683, 1-(3,5-difluorophenyl)-N-[3-methyl-5-(3-methyl-3-morpholino-azetidin-1-yl)phenyl]-1,2,4-triazol-3-amine]: the fold induction at 1 µM fell in the range of 10 to 100 and the fold induction at 10 µM was 10 to 100.
For `FC(F)(F)c1cc(Nc2ncn(-c3cccnc3)n2)nc(N2CCN(C3COC3)CC2)c1` [Compound 684, 6-[4-(oxetan-3-yl)piperazin-1-yl]-N-[1-(3-pyridyl)-1,2,4-triazol-3-yl]-4-(trifluoromethyl)pyridin-2-amine], the fold induction at 1 µM lay in the range of 10 to 100 and the fold induction at 10 µM is 10 to 100.
`CC(F)(F)c1cc(Nc2ncn(-c3cc(F)cc(F)c3)n2)nc(N2CCN(C3COC3)CC2)c1` [Compound 685, 4-(1,1-difluoroethyl)-N-[1-(3,5-difluorophenyl)-1,2,4-triazol-3-yl]-6-[4-(oxetan-3-yl)piperazin-1-yl]pyridin-2-amine]: the fold induction at 1 µM fell in the range of 10 to 100 and the fold induction at 10 µM was in the range of 1 to 10.
For `Fc1cc(Nc2ncn(-c3cc(F)cc(F)c3)n2)cc(NC2COC2)c1` [Compound 686, N3-[1-(3,5-difluorophenyl)-1,2,4-triazol-3-yl]-5-fluoro-N1-(oxetan-3-yl)benzene-1,3-diamine] the same measures were 1 to 10 and 1 to 10.
As for `Cc1cc(Nc2ncn(-c3ccc(C#N)cc3)n2)cc(N2CCN(C3COC3)CC2)c1` [Compound 687, 4-[3-[3-methyl-5-[4-(oxetan-3-yl)piperazin-1-yl]anilino]-1,2,4-triazol-1-yl]benzonitrile], the fold induction at 1 µM was in the range of 1 to 10 and the fold induction at 10 µM is 1 to 10.
